Assay [1] has as its system Frog (Rana pipiens) Skin. The format is cell-based. From the text:
(§1) Based upon the structural relationship of alpha-MSH (and its analogues and fragments) to its biological potency, using in vitro a frog skin bioassay system, the active site of alpha-MSH appears to be the common active core sequence suitably modified Ac-Met-Glu-His-Phe-Arg-Trp-Gly-NH₂. This fragment (Alpha-MSH₄₋₁₀) has been synthesized and tested for its melanocyte stimulating activity in frog skin and shown to be a weak agonist when compared to the native hormone. The amino acid exchanges in position 5(Glu) and 10(Gly) have not, previous to the making of the present invention, been investigated. […] The following table summarizes some of these studies.
(§2) The biological potencies of alpha-MSH, the linear, and the cyclic analogues were determined by their ability to stimulate melanosome dispersion in vitro in the frog and lizard bioassays. These in vitro assays provide clear cut dose response curves (between 2.5 x 10⁻¹¹ and 4 x 10⁻¹⁰ M) and can detect minimal concentration of alpha-MSH of about 10⁻¹¹ M. The assays are based upon the centrifugal dispersion of melanosomes (melanin granules) within the dendritic processes of integumental dermal melanophores leading to darkening of the skin. All the test solutions were prepared via serial dilutions from a stock solution (10⁻⁴ M). The frogs (Rans pipiens) used in these evaluations were obtained from Kons Scientific, Germantown, WI, and the lizards (Anolis carolinensis) were from the Snake Farm, La Place, LA.

Assay [2] deals with Lizard (Anolis carolinensis) Skin. The format is cell-based.
Source text: as §1, §2

The test system of assay [3] is Frog (Rana pipiens) Skin. To be noted: earlier studies, cited from earlier work; for Relative Potency Frog: relative to alpha-MSH = 1.0.
For assay [4], the system named is Lizard (Anolis carolinensis) Skin. As to conditions: relative to alpha-MSH = 1.0; earlier studies; cited from earlier work.
The mark [5] stands for this setting: linear analogues, P = prolonged action.
The mark [6] stands for this setting: linear analogues, relative to alpha-MSH = 1.0.
Setting [7] is: cyclic analogues, p = prolonged action.
[8] abbreviates: cyclic analogues, relative to alpha-MSH = 1.0.

The text below walks through data of EP0292291B1, “Linear and cyclic analogs of alpha-msh fragments with extraordinary potency” (UNIVERSITY PATENTS, INC., priority 1987, dated 1988).

Where two headings read alike, the source gives them in different places. Positions of bridges follow the written chain, without caps; N, C: chain ends. Non-standard residues stand in square brackets, D forms with d. Residues, ends and D or L forms follow the SMILES beside them. Nle = CCCC[C@H](N)C(=O)O; Dab = NCC[C@H](N)C(=O)O

Regarding `CCCC[C@H](NC(C)=O)C(=O)N[C@@H](CCC(=O)O)C(=O)N[C@@H](Cc1c[nH]cn1)C(=O)N[C@H](Cc1ccccc1)C(=O)N[C@@H](CCCNC(=N)N)C(=O)N[C@@H](Cc1c[nH]c2ccccc12)C(=O)N[C@@H](CCCN)C(N)=O` [Analogue 8], the “Residual Activity Frog” value in the assay on Frog (Rana pipiens) Skin [1] (setting [5]) is on record as “P(-)”. Further, the “Biological Potency Frog” value in the assay on Frog (Rana pipiens) Skin [1] (setting [6]) is recorded as 0.6. Besides, in assay [2] (setting [5]), the “Residual Activity Lizard” value is recorded as “P(-)”. Moreover, the “Biological Potency Lizard” value in assay [2] (setting [6]) worked out at 8.0.

Turning to `CCCC[C@H](NC(C)=O)C(=O)N[C@@H](CC(=O)O)C(=O)N[C@@H](Cc1c[nH]cn1)C(=O)N[C@H](Cc1ccccc1)C(=O)N[C@@H](CCCNC(=N)N)C(=O)N[C@@H](Cc1c[nH]c2ccccc12)C(=O)N[C@@H](CCCN)C(N)=O` [Analogue 9], the “Biological Potency Frog” value with Frog (Rana pipiens) Skin [1] (setting [6]) stood at 0.9. In addition, the “Residual Activity Lizard” value in assay [2] (setting [5]) is “P(-)”. Also, the “Biological Potency Lizard” value in assay [2] (setting [6]) is 10.0.

On to `CCCC[C@H](NC(C)=O)C(=O)N[C@@H](CCC(=O)O)C(=O)N[C@@H](Cc1c[nH]cn1)C(=O)N[C@H](Cc1ccccc1)C(=O)N[C@@H](CCCNC(=N)N)C(=O)N[C@@H](Cc1c[nH]c2ccccc12)C(=O)N[C@@H](CCN)C(N)=O` [Analogue 10] (Ac-[Nle]EH[dF]RW[Dab]-NH2), for which, in the assay with Frog (Rana pipiens) Skin [1] (setting [5]), the “Residual Activity Frog” value is recorded as “P(±)”. The “Biological Potency Frog” value in the assay with Frog (Rana pipiens) Skin [1] (setting [6]) is listed as 0.9. Further, the “Residual Activity Lizard” value in assay [2] (setting [5]) is listed as “P(±)”. Also, the “Biological Potency Lizard” value in assay [2] (setting [6]) stood at 10.0.

Turning to `CCCC[C@H](NC(C)=O)C(=O)N[C@@H](CC(=O)O)C(=O)N[C@@H](Cc1c[nH]cn1)C(=O)N[C@H](Cc1ccccc1)C(=O)N[C@@H](CCCNC(=N)N)C(=O)N[C@@H](Cc1c[nH]c2ccccc12)C(=O)N[C@@H](CCN)C(N)=O` [Analogue 11], the “Residual Activity Frog” value in the assay with Frog (Rana pipiens) Skin [1] (setting [5]) is “P(-)”. Moreover, the “Biological Potency Frog” value in the assay with Frog (Rana pipiens) Skin [1] (setting [6]) was determined as 0.9. In assay [2] (setting [5]), the “Residual Activity Lizard” value was “P(-)”. Moreover, the “Biological Potency Lizard” value in assay [2] (setting [6]) came out at 50.0.

Regarding `CCCC[C@H](NC(C)=O)C(=O)N[C@@H](CC(=O)O)C(=O)N[C@@H](Cc1c[nH]cn1)C(=O)N[C@H](Cc1ccccc1)C(=O)N[C@@H](CCCNC(=N)N)C(=O)N[C@@H](Cc1c[nH]c2ccccc12)C(=O)N[C@@H](CN)C(N)=O` [Analogue 12], in the assay on Frog (Rana pipiens) Skin [1] (setting [5]), the “Residual Activity Frog” value is listed as “P(-)”. Further, the “Biological Potency Frog” value in the assay with Frog (Rana pipiens) Skin [1] (setting [6]) worked out at 0.2. Also, in assay [2] (setting [5]), the “Residual Activity Lizard” value is “P(-)”. Further, the “Biological Potency Lizard” value in assay [2] (setting [6]) was 8.0.

With `CCCC[C@H](NC(C)=O)C(=O)N[C@@H](CCC(=O)O)C(=O)N[C@@H](Cc1c[nH]cn1)C(=O)N[C@@H](Cc1ccccc1)C(=O)N[C@@H](CCCNC(=N)N)C(=O)N[C@@H](Cc1c[nH]c2ccccc12)C(=O)N[C@@H](CCCCN)C(N)=O` [Analogue 13], the “Residual Activity Frog” value in the assay with Frog (Rana pipiens) Skin [1] (setting [5]) was “P(+)”. For the same compound, the “Biological Potency Frog” value in the assay on Frog (Rana pipiens) Skin [1] (setting [6]) is 0.001. For the same compound, the “Residual Activity Lizard” value in assay [2] (setting [5]) is “P(-)”. Moreover, in assay [2] (setting [6]), the “Biological Potency Lizard” value is reported as 0.08.

`CCCC[C@H](NC(C)=O)C(=O)N[C@H]1CCC(=O)NCCCC[C@@H](C(=O)NCC(=O)N2CCC[C@H]2C(=O)N[C@H](C(N)=O)C(C)C)NC(=O)[C@H](Cc2c[nH]c3ccccc23)NC(=O)[C@H](CCCNC(=N)N)NC(=O)[C@@H](Cc2ccccc2)NC(=O)[C@H](Cc2c[nH]cn2)NC1=O` [Analogue 15] (Ac-[Nle]EH[dF]RWKGPV-NH2; lactam 2-7): the “Biological Potency Frog” value in the assay with Frog (Rana pipiens) Skin [1] worked out at 1.0. The “Residual Activity Frog” value in the assay with Frog (Rana pipiens) Skin [1] (setting [7]) is listed as “p(+)”. In assay [2], the “Biological Potency Lizard” value turned out to be 6.0. The “Residual Activity Lizard” value in assay [2] (setting [7]) is reported as “p(+)”.

In the case of `CCCC[C@H](NC(C)=O)C(=O)N[C@H]1CCC(=O)NCCCC[C@@H](C(N)=O)NC(=O)[C@H](Cc2c[nH]c3ccccc23)NC(=O)[C@H](CCCNC(=N)N)NC(=O)[C@@H](Cc2ccccc2)NC(=O)[C@H](Cc2c[nH]cn2)NC1=O` [Analogue 16], the “Residual Activity Frog” value in the assay with Frog (Rana pipiens) Skin [1] (setting [7]) is reported as “p(+)”. In addition, in the assay with Frog (Rana pipiens) Skin [1] (setting [8]), the “Biological Potency Frog” value worked out at 0.5. Besides, in assay [2] (setting [7]), the “Residual Activity Lizard” value is “p(+)”. In addition, in assay [2] (setting [8]), the “Biological Potency Lizard” value was found to be 9.0.

For the compound `CCCC[C@H](NC(C)=O)C(=O)N[C@H]1CC(=O)NCCC[C@@H](C(N)=O)NC(=O)[C@H](Cc2c[nH]c3ccccc23)NC(=O)[C@H](CCCNC(=N)N)NC(=O)[C@@H](Cc2ccccc2)NC(=O)[C@H](Cc2c[nH]cn2)NC1=O` [Analogue 18], in the assay with Frog (Rana pipiens) Skin [1] (setting [7]), the “Residual Activity Frog” value is on record as “p(-)”. In addition, the “Biological Potency Frog” value in the assay on Frog (Rana pipiens) Skin [1] (setting [8]) was determined as 1.0. Besides, the “Residual Activity Lizard” value in assay [2] (setting [7]) is given as “p(-)”. For the same compound, in assay [2] (setting [8]), the “Biological Potency Lizard” value was determined as 20.0.

For the compound `CCCC[C@H](NC(C)=O)C(=O)N[C@H]1CC(=O)NCC[C@@H](C(N)=O)NC(=O)[C@H](Cc2c[nH]c3ccccc23)NC(=O)[C@H](CCCNC(=N)N)NC(=O)[C@@H](Cc2ccccc2)NC(=O)[C@H](Cc2c[nH]cn2)NC1=O` [Analogue 19], in the assay with Frog (Rana pipiens) Skin [1] (setting [7]), the “Residual Activity Frog” value was “p(-)”. The “Biological Potency Frog” value in the assay on Frog (Rana pipiens) Skin [1] (setting [8]) is 1.0. Further, in assay [2] (setting [7]), the “Residual Activity Lizard” value is recorded as “p(-)”. For the same compound, the “Biological Potency Lizard” value in assay [2] (setting [8]) is given as 5.0.

As for `CCCC[C@H](NC(C)=O)C(=O)N[C@H]1CC(=O)NC[C@@H](C(N)=O)NC(=O)[C@H](Cc2c[nH]c3ccccc23)NC(=O)[C@H](CCCNC(=N)N)NC(=O)[C@@H](Cc2ccccc2)NC(=O)[C@H](Cc2c[nH]cn2)NC1=O` [Analogue 20], in the assay with Frog (Rana pipiens) Skin [1] (setting [7]), the “Residual Activity Frog” value is “p(-)”. Further, in the assay with Frog (Rana pipiens) Skin [1] (setting [8]), the “Biological Potency Frog” value was 0.01. The “Residual Activity Lizard” value in assay [2] (setting [7]) was “p(-)”. The “Biological Potency Lizard” value in assay [2] (setting [8]) worked out at 5.0.

For “Ac-Met-Glu-His-Phe-Arg-Trp-Gly-NH₂ [Ac-alpha -MSH₄₋₁₀NH₂]”, the “Relative Potency Frog” value with Frog (Rana pipiens) Skin [3] is 0.0003. The “melanocyte stimulating activity in frog skin” value in the assay with Frog (Rana pipiens) Skin [3] (result in words, compared to the native hormone) is “weak agonist”. For the same compound, the “Relative Potency Lizard” value in assay [4] is 0.004.

Regarding Ac-[Nle⁴,D-Phe⁷]-alpha -MSH₁₋₁₃NH₂, the “Relative Potency Frog” value in the assay with Frog (Rana pipiens) Skin [3] was 60.0. In assay [4], the “Relative Potency Lizard” value is 5.0.

Turning to Ac-[Nle⁴,D-Phe⁷]-alpha-MSH₄₋₁₀NH₂, in the assay with Frog (Rana pipiens) Skin [3], the “Relative Potency Frog” value is reported as 0.02. The “Relative Potency Lizard” value in assay [4] is given as 10.0.

Ac-[Nle⁴,D-Phe⁷]-alpha-MSH₄₋₁₁NH₂: the “Relative Potency Frog” value in the assay with Frog (Rana pipiens) Skin [3] is recorded as 0.16. Also, the “Relative Potency Lizard” value in assay [4] is 8.0.

Consider Ac-[Nle⁴]-alpha-MSH₄₋₁₀NH₂, for which the “Relative Potency Frog” value with Frog (Rana pipiens) Skin [3] is given as 0.002. Moreover, in assay [4], the “Relative Potency Lizard” value is given as 0.06.

For the compound Ac-[Nle⁴]-alpha-MSH₄₋₁₁NH₂, the “Relative Potency Frog” value in the assay with Frog (Rana pipiens) Skin [3] is 0.002. Further, the “Relative Potency Lizard” value in assay [4] was 1.0.

On to alpha-melanotropin [alpha-MSH], for which the results for the “Residual Activity Lizard” value in assay [2] (setting [7]) and in assay [2] (setting [5]) were “p(-)” and “P(-)”, respectively. Besides, the “Biological Potency Lizard” value in assay [2] (setting [8]) and in assay [2] (setting [6]) was 1.0 in each case. Besides, in the assay with Frog (Rana pipiens) Skin [3], the “Relative Potency Frog” value is reported as 1.0. For the same compound, the “Relative Potency Lizard” value in assay [4] is reported as 1.0.
